# Measurements reported in PMC11767801, “Purine but Not Pyrimidine De Novo Nucleotide Biosynthesis Inhibitors Strongly Enhance the Antiviral Effect of Corresponding Nucleobases Against Dengue Virus” (Molecules, 2025).
# “Also recorded” adds a separate entry of the source. Where two headings read alike, the source gives them in different places.
# Columns and labels:
# DENV replicon = DENV replicon cell assay (Renilla luciferase); assay type: cell-based, Dengue virus (DENV); conditions: for EC50: Dengue virus; for potentiation of anti-replicon activity (in words): purine nucleobase combined with 6MMPR and/or 6MMPR prodrugs
# Method: (§1) The following cell lines were used in this study: (i) Huh7 was purchased from JCRB Cell Bank (Seikisui XenoTech, Kansas City, MO, USA) and cultured in Minimum Essential Medium (MEM) supplemented with 10% fetal bovine serum (FBS), and 1× non-essential amino acids (NEAA), 1 mM sodium pyruvate, 100 IU penicillin/streptomycin per mL, 5 µg/mL plasmocin (InvivoGen, San Diego, CA, USA), 1× GlutaMAX, and (ii) BHK pD2-hRucPac-2ATG30 DENV replicon cells were a gift from M. Diamond (Washington University School of Medicine) and cultured in Dulbecco’s modified Eagle’s medium (DMEM) supplemented with 10% FBS, 100 IU penicillin/streptomycin per mL, 5 µg/mL plasmocin, 1× GlutaMAX, and 3 µg/mL puromycin (InvivoGen). (iii) A549 Ace2 TMPRSS2 cells were provided by M. Saeed (Boston University) and grown in DMEM supplemented with 10% FBS, 100 IU penicillin/streptomycin per mL, 10 mM HEPES, 1× NEAA, 1× GlutaMAX, 1 mM sodium pyruvate, 5 µg/mL plasmocin, 0.5 µg/mL puromycin, and 0.5 µg/mL blasticidin (InvivoGen).
# The DENV replicon assay was performed as described. Briefly, DENV replicon cells were plated at 1500–2000 cells per well […] of a 96-well dish (Corning, USA) plate the day before use. The next day, compounds were added and cells incubated at 37 °C, 5% CO2, in a humidified incubator for three days. The cells were the washed with PBS and Complete Promega Renilla reagent was added (Promega E2720, Madison, USA, 1 µL Renilla-Glo Substrate + 99 µL Renilla-Glo Buffer + 100 µL phenol-red-free DMEM supplemented with 10% FBS per well). Cells were lysed for 10 min at room temp and 160 µL of lysate per well was transferred to wells of a 96-well opaque white plate (Falcon 353296, Corning, USA), and luminescence was measured using a BioTek (Winooski, USA) Neo2 plate reader.
# [1] = Cell viability assay (MTS); assay type: cell-based; conditions: hamster
# Method: as §1
# (§2) Cell viability assays were performed as described in [9, 10, 23]. Briefly, DENV replicon cells were plated at 1500–2000 cells per well of a 96-well dish plate (Corning, NY, USA) the day before use. The next day, compounds were added and cells incubated at 37 °C, 5% CO2, in a humidified incubator for three days. The cells were washed with phosphate-buffered saline (PBS) and incubated with the MTS reagent (Promega G5430, Madison, WI, USA) as per the manufacturer’s instructions. The plates were read at a 490 nm wavelength at 30 min intervals in a BioTek (Winooski, VT, USA) Neo2 plate reader.
# [2] = tested on: ZIKV PAN1 Nluc reporter virus; assay: ZIKV nanoluc reporter virus assay in A549 Ace2 TMPRSS2 cells; assay type: cell-based, Zika virus (ZIKV); conditions: three days
# Method: (§3) Figure 5 Flavivirus inhibition by the nucleobase 2-thiouracil (2SU) and the corresponding nucleoside 2-thiouridine (2SUridine). (A) Dose–response assay for inhibition of a ZIKV nanoluc reporter. Cells were inoculated with reporter virus for two hours, washed, and then compound-added. Three days later, cells were lysed, and the luciferase activity was analyzed. (B) DENV-induced cytopathic effects in compound-treated cells. Cells were inoculated with DENV for two hours, washed, and compound-added for five days. A neutral red assay was performed to determine cell viability. (C) Same as in (B), except the cells are not treated with virus. NITD = NITD008 a positive-control DENV inhibitor.
# The following viruses were used in this study: (i) ZIKV PAN1 Nluc reporter virus has a nanoluc gene inserted into the viral genome as described. The virus was propagated and virus preps tittered as described. (ii) DENV type 2 New Guinea C strain (VR-1584) was obtained from ATCC (Manassas, VA, USA) and propagated in C6/36 mosquito cells as described.
# The ZIKV nanoluc reporter virus assay was performed as described. Briefly, A549 Ace2 TMPRSS2 cells were plated into 96-well plates at 15,000 per well the night before use. […] The luciferase levels were measured using a Neo 2 plate reader (BioTek, Winooski, USA).
# [3] = tested on: DENV type 2 New Guinea C strain; assay: DENV CPE assay in Huh7 cells (neutral red); assay type: cell-based, Dengue virus (DENV); conditions: five days
# Method: as §3
# The following viruses were used in this study: (i) ZIKV PAN1 Nluc reporter virus has a nanoluc gene inserted into the viral genome as described. The virus was propagated and virus preps tittered as described. […]
# Huh7 cells were plated into 96-well plates at 10,000 cells per well the day before use. […] The compounds were removed, and the viability of the cells was measured using a neutral red staining assay. […] Neutral red destain buffer (50% ethanol, 49% H2O, and 1% glacial acetic acid) was added at 100 µL per well and the plates were read at 540 nm in a Molecular Device (San Jose, CA, USA) M5e plate reader.
# [4] = tested on: DENV replicon cells (BHK pD2-hRucPac-2ATG30); assay: Cell viability assay (MTS); assay type: cell-based; conditions: nucleobase combined with potentiators (6MMPR and prodrugs)
# Method: as §1, §2
# DENV = tested on: DENV; set-up: method as in PMID 29672522; conditions: cited from earlier work
# [5] = 72 h, compound alone, DENV BHK replicon cells, luciferase, three days
# [6] = compound alone, DENV replicon cells, MTS, three days
# [7] = 72 h, Table 3, nucleobase dose-response plus vehicle (DMSO)
# [8] = nucleobase dose-response +6MMPR 0.065 μM
# [9] = nucleobase dose-response +Prdg 1 0.09 μM
# [10] = nucleobase dose-response +Prdg 2 1.5 μM
# [11] = nucleobase dose-response +Prdg 3 1.4 μM
# [12] = Table 3, nucleobase dose-response plus vehicle (DMSO)
smiles,measurement,setting,value
O=c1ccn([C@@H]2O[C@H](CO)[C@@H](O)[C@H]2O)c(=S)[nH]1 [2-thiouridine],EC50,DENV replicon; [5],> 50 µM
same,anti-replicon activity (in words),"DENV replicon; compound alone, DENV BHK replicon cell line",we did not observe activity
same,CC50 at 3 days,[1]; [6],> 50 µM
same,"antiviral activity, ZIKV reporter virus replication (in words)",[2],observe antiviral activity
same,"antiviral activity, DENV-induced cytopathic effects (in words)",[3],observe antiviral activity
O=c1[nH]cc(F)c(=O)[nH]1 [5-fluorouracil],EC50,DENV replicon; [5],0.74 µM
same,CC50 at 3 days,[1]; [6],0.93 µM
Cc1c(-c2ccc(-c3ccccc3F)cc2)nc2ccc(F)cc2c1C(=O)O [Brequinar],EC50,DENV replicon; [5],3 µM
same,CC50 at 3 days,[1]; [6],4.5 µM
NC(=O)c1nc(F)c[nH]c1=O [Favipiravir],EC50,DENV replicon; [7],128 µM
same,EC50,DENV replicon; [5],114 µM
same,EC50,DENV replicon; [8],63 µM
same,EC50,DENV replicon; [9],51 µM
same,EC50,DENV replicon; [10],47 µM
same,EC50,DENV replicon; [11],46 µM
same,potentiation of anti-replicon activity (in words),DENV replicon; listed as FAV,clear enhanced effect; also recorded: reduction in the EC50 value
same,CC50 at 3 days,[1]; [12],> 500 µM
same,CC50 at 3 days,[1]; [6],> 500 µM
same,CC50 at 3 days,[1]; [8],> 500 µM
same,CC50 at 3 days,[1]; [9],> 500 µM
same,CC50 at 3 days,[1]; [10],> 500 µM
same,CC50 at 3 days,[1]; [11],> 500 µM
CC(C)C(=O)OC[C@H]1O[C@@H](n2ccc(NO)nc2=O)[C@H](O)[C@@H]1O [Molnupiravir],EC50,DENV replicon; [5],6.2 µM
same,CC50 at 3 days,[1]; [6],53 µM
CSc1ncnc2c1ncn2[C@@H]1O[C@H](COC(=O)C(C)C)[C@@H](OC(=O)C(C)C)[C@H]1OC(=O)C(C)C [Prdg 1],EC50,DENV replicon; [5],0.26 µM
same,CC50 at 3 days,[1]; [6],2.6 µM
"O=c1cc[nH]c(=S)[nH]1 [Prdg 2-thiouracil, 2-thiouracil]",EC50,DENV replicon; [5],> 50 µM
same,CC50 at 3 days,[1]; [6],> 50 µM
CSc1ncnc2c1ncn2[C@@H]1O[C@H](COC(=O)N(C)C)[C@@H](O)[C@H]1O [Prdg 2],EC50,DENV replicon; [5],2.5 µM
same,CC50 at 3 days,[1]; [6],5.4 µM
CSc1ncnc2c1ncn2[C@@H]1O[C@H](COC(=O)N(C)C)[C@@H](OC(=O)C(C)C)[C@H]1OC(=O)C(C)C [Prdg 3],EC50,DENV replicon; [5],2.3 µM
same,CC50 at 3 days,[1]; [6],2.4 µM
"O=c1cnn([C@@H]2O[C@H](CO)[C@@H](O)[C@H]2O)c(=O)[nH]1 [Prdg 6-azauridine, 6-azauridine]",EC50,DENV replicon; [5],1.9 µM
same,CC50 at 3 days,[1]; [6],8.8 µM
"CSc1ncnc2c1ncn2[C@@H]1O[C@H](CO)[C@@H](O)[C@H]1O [Prdg 6MMPR, 6-methylmercaptopurine riboside]",EC50,DENV replicon; [5],0.21 µM
same,CC50 at 3 days,[1]; [6],0.21 µM
NC(=O)c1ncc[nH]c1=O [Prdg T-1105],EC50,DENV replicon; [7],15 µM
same,EC50,DENV replicon; [5],13 µM
same,EC50,DENV replicon; [8],11 µM
same,EC50,DENV replicon; [9],8.3 µM
same,EC50,DENV replicon; [10],10 µM
same,EC50,DENV replicon; [11],9.6 µM
same,potentiation of anti-replicon activity (in words),DENV replicon,strongly potentiated
same,CC50 at 3 days,[1]; [12],> 167 µM
same,CC50 at 3 days,[1]; [6],> 500 µM
same,CC50 at 3 days,[1]; [8],> 167 µM
same,CC50 at 3 days,[1]; [9],> 167 µM
same,CC50 at 3 days,[1]; [10],> 167 µM
same,CC50 at 3 days,[1]; [11],> 167 µM
NC(=O)c1nc[nH]n1 [Ribavirin nucleobase],EC50,DENV replicon; [7],5.7 µM
same,EC50,DENV replicon; [5],5.7 µM
same,EC50,DENV replicon; [8],3.4 µM
same,EC50,DENV replicon; [9],2.3 µM
same,EC50,DENV replicon; [10],0.88 µM
same,EC50,DENV replicon; [11],2.6 µM
same,potentiation of anti-replicon activity (in words),DENV replicon,can be potentiated
same,CC50 at 3 days,[1]; [12],> 50 µM
same,CC50 at 3 days,[1]; [6],> 100 µM
same,CC50 at 3 days,[1]; [8],> 50 µM
same,CC50 at 3 days,[1]; [9],> 50 µM
same,CC50 at 3 days,[1]; [10],> 50 µM
same,CC50 at 3 days,[1]; [11],> 50 µM
same,toxicity of combination (in words),[4],conferred some toxicity not shown by either compound alone
same,anti-DENV activity (in words),DENV,similarly strong antiviral activity
same,cytotoxicity (in words),DENV,considerably less cytotoxic than ribavirin
same,anti-DENV activity (in words),DENV; listed as ribavirin nucleobase,strong
same,cytotoxicity (in words),DENV; listed as ribavirin nucleobase,non-cytotoxic
